Species: Rattus norvegicus
Experiment: Open TG-GATES - Regimen: Single
Type: toxicity, organism-based, Sprague-Dawley
Parameters: regimen Single, gender Male, age 6 weeks
Conditions: in vivo, po, route gavage; for APTT / Bas / Eos / Fbg / Hb / Ht / Lym / MCH / MCHC / MCV / Mono / Neu / PT / Plat / RBC / Ret / WBC: tissue Blood; for KIDNEY_L / KIDNEY_R / KIDNEY_TOTAL: tissue Kidney; for LIVER: tissue Liver; for A/G / ALP / ALT / AST / BUN / CRE / Ca / Cl / DBIL / GLC / IP / K / LDH / Na / PL / RALB / TBIL / TC / TG / TP / gamma-GTP: tissue Plasma
[1] = 120 mg/kg, 3 h, dose level Middle
[2] = 120 mg/kg, 6 h, dose level Middle
[3] = 120 mg/kg, 9 h, dose level Middle
[4] = 120 mg/kg, 24 h, dose level Middle
[5] = 400 mg/kg, 3 h, dose level High
[6] = 400 mg/kg, 6 h, dose level High
[7] = 400 mg/kg, 9 h, dose level High
[8] = 400 mg/kg, 24 h, dose level High

## Cc1cccc(C)c1OCC(C)N (centres undefined) [MEXILETINE]
[1]
  TERMINAL_BW: 218.1 g
  APTT: 21.8 s
  Bas: 0%
  Eos: 0.4%
  Fbg: 310.2 mg/dL
  Hb: 13.1 g/dL
  Ht: 40.6%
  Lym: 83.2%
  MCH: 20.1 pg
  MCHC: 32.2%
  MCV: 62.6 fL
  Mono: 2%
  Neu: 13.6%
  PT: 15.9 s
  Plat: 113.4 x10_4/uL
  RBC: 648.8 x10_4/ul
  Ret: 7.3%
  WBC: 96 x10_2/uL
  KIDNEY_L: 1 g
  KIDNEY_R: 1 g
  KIDNEY_TOTAL: 1.9 g
  LIVER: 10.1 g
  A/G: 1.3
  ALP: 1543.6 IU/L
  ALT: 54.4 IU/L
  AST: 78.4 IU/L
  BUN: 12.8 mg/dL
  CRE: 0.2 mg/dL
  Ca: 10.5 mg/dL
  Cl: 106.4 meq/L
  DBIL: 0 mg/dL
  GLC: 182.6 mg/dL
  IP: 9.4 mg/dL
  K: 4.4 meq/L
  LDH: 175.2 IU/L
  Na: 141.6 meq/L
  PL: 135 mg/dL
  RALB: 3.1 g/dL
  TBIL: 0.018 mg/dL
  TC: 77.2 mg/dL
  TG: 61.8 mg/dL
  TP: 5.5 g/dL
  gamma-GTP: 1.2 IU/L
[2]
  TERMINAL_BW: 209 g
  APTT: 21.2 s
  Bas: 0%
  Eos: 0.8%
  Fbg: 318.6 mg/dL
  Hb: 13.2 g/dL
  Ht: 40.5%
  Lym: 77.4%
  MCH: 20.4 pg
  MCHC: 32.6%
  MCV: 62.6 fL
  Mono: 2.4%
  Neu: 19%
  PT: 16.1 s
  Plat: 120.4 x10_4/uL
  RBC: 647 x10_4/ul
  Ret: 6.8%
  WBC: 69.3 x10_2/uL
  KIDNEY_L: 0.9 g
  KIDNEY_R: 0.9 g
  KIDNEY_TOTAL: 1.9 g
  LIVER: 9 g
  A/G: 1.2
  ALP: 1633.4 IU/L
  ALT: 43.8 IU/L
  AST: 73.4 IU/L
  BUN: 9.8 mg/dL
  CRE: 0.2 mg/dL
  Ca: 10.6 mg/dL
  Cl: 107.4 meq/L
  DBIL: 0 mg/dL
  GLC: 184.6 mg/dL
  IP: 8.6 mg/dL
  K: 4.1 meq/L
  LDH: 179.2 IU/L
  Na: 142 meq/L
  PL: 124.6 mg/dL
  RALB: 3.1 g/dL
  TBIL: 0.03 mg/dL
  TC: 68.6 mg/dL
  TG: 48.6 mg/dL
  TP: 5.7 g/dL
  gamma-GTP: 1.2 IU/L
[3]
  TERMINAL_BW: 219.2 g
  APTT: 22.9 s
  Bas: 0%
  Eos: 1%
  Fbg: 318.6 mg/dL
  Hb: 12.6 g/dL
  Ht: 39%
  Lym: 78.6%
  MCH: 20.2 pg
  MCHC: 32.3%
  MCV: 62.6 fL
  Mono: 2.4%
  Neu: 17.2%
  PT: 16.3 s
  Plat: 120 x10_4/uL
  RBC: 624 x10_4/ul
  Ret: 7.2%
  WBC: 97.2 x10_2/uL
  KIDNEY_L: 1 g
  KIDNEY_R: 1 g
  KIDNEY_TOTAL: 2 g
  LIVER: 9.5 g
  A/G: 1.2
  ALP: 1531 IU/L
  ALT: 44.6 IU/L
  AST: 71.8 IU/L
  BUN: 10.6 mg/dL
  CRE: 0.2 mg/dL
  Ca: 10.6 mg/dL
  Cl: 104.6 meq/L
  DBIL: 0 mg/dL
  GLC: 188.4 mg/dL
  IP: 9 mg/dL
  K: 4.3 meq/L
  LDH: 143.8 IU/L
  Na: 140.2 meq/L
  PL: 130.4 mg/dL
  RALB: 3 g/dL
  TBIL: 0.02 mg/dL
  TC: 74 mg/dL
  TG: 66.8 mg/dL
  TP: 5.4 g/dL
  gamma-GTP: 1.2 IU/L
[4]
  TERMINAL_BW: 231.4 g
  APTT: 19.9 s
  Bas: 0%
  Eos: 0.8%
  Fbg: 293.8 mg/dL
  Hb: 12.8 g/dL
  Ht: 39.5%
  Lym: 81%
  MCH: 20.6 pg
  MCHC: 32.3%
  MCV: 63.8 fL
  Mono: 2.4%
  Neu: 15.2%
  PT: 15.9 s
  Plat: 117.4 x10_4/uL
  RBC: 619.8 x10_4/ul
  Ret: 7.6%
  WBC: 86.1 x10_2/uL
  KIDNEY_L: 1 g
  KIDNEY_R: 1 g
  KIDNEY_TOTAL: 2 g
  LIVER: 10.8 g
  A/G: 1.3
  ALP: 1779.4 IU/L
  ALT: 50 IU/L
  AST: 75 IU/L
  BUN: 17.2 mg/dL
  CRE: 0.2 mg/dL
  Ca: 10.7 mg/dL
  Cl: 106.2 meq/L
  DBIL: 0 mg/dL
  GLC: 188.6 mg/dL
  IP: 7.6 mg/dL
  K: 4.2 meq/L
  LDH: 205 IU/L
  Na: 141.4 meq/L
  PL: 148.4 mg/dL
  RALB: 3.1 g/dL
  TBIL: 0.008 mg/dL
  TC: 74.2 mg/dL
  TG: 150.8 mg/dL
  TP: 5.6 g/dL
  gamma-GTP: 1.6 IU/L
[5]
  TERMINAL_BW: 221.2 g
  APTT: 21.7 s
  Bas: 0%
  Eos: 1%
  Fbg: 292.2 mg/dL
  Hb: 12.9 g/dL
  Ht: 39.9%
  Lym: 75.8%
  MCH: 20.5 pg
  MCHC: 32.4%
  MCV: 63.2 fL
  Mono: 2.4%
  Neu: 20.6%
  PT: 16.5 s
  Plat: 108.6 x10_4/uL
  RBC: 632.4 x10_4/ul
  Ret: 7.4%
  WBC: 62.3 x10_2/uL
  KIDNEY_L: 1 g
  KIDNEY_R: 1.1 g
  KIDNEY_TOTAL: 2.1 g
  LIVER: 9.9 g
  A/G: 1.3
  ALP: 1366.2 IU/L
  ALT: 58.8 IU/L
  AST: 87.6 IU/L
  BUN: 12.2 mg/dL
  CRE: 0.1 mg/dL
  Ca: 10.4 mg/dL
  Cl: 106 meq/L
  DBIL: 0 mg/dL
  GLC: 174.4 mg/dL
  IP: 9.6 mg/dL
  K: 4 meq/L
  LDH: 168 IU/L
  Na: 141 meq/L
  PL: 122.6 mg/dL
  RALB: 3 g/dL
  TBIL: 0.028 mg/dL
  TC: 72.6 mg/dL
  TG: 46 mg/dL
  TP: 5.4 g/dL
  gamma-GTP: 1 IU/L
[6]
  TERMINAL_BW: 214.8 g
  APTT: 21.8 s
  Bas: 0%
  Eos: 0.6%
  Fbg: 411.6 mg/dL
  Hb: 13.6 g/dL
  Ht: 42.2%
  Lym: 71.2%
  MCH: 20.7 pg
  MCHC: 32.4%
  MCV: 64 fL
  Mono: 2%
  Neu: 25%
  PT: 16.1 s
  Plat: 109.7 x10_4/uL
  RBC: 660.2 x10_4/ul
  Ret: 7.1%
  WBC: 71.5 x10_2/uL
  KIDNEY_L: 0.9 g
  KIDNEY_R: 0.9 g
  KIDNEY_TOTAL: 1.9 g
  LIVER: 9.6 g
  A/G: 1.2
  ALP: 1714.4 IU/L
  ALT: 52 IU/L
  AST: 84.2 IU/L
  BUN: 10.2 mg/dL
  CRE: 0.2 mg/dL
  Ca: 10.3 mg/dL
  Cl: 107.2 meq/L
  DBIL: 0 mg/dL
  GLC: 186.8 mg/dL
  IP: 8.5 mg/dL
  K: 4.2 meq/L
  LDH: 190.4 IU/L
  Na: 141.8 meq/L
  PL: 133.2 mg/dL
  RALB: 3 g/dL
  TBIL: 0.02 mg/dL
  TC: 80.4 mg/dL
  TG: 34.8 mg/dL
  TP: 5.7 g/dL
  gamma-GTP: 1.6 IU/L
[7]
  TERMINAL_BW: 217.6 g
  APTT: 23.3 s
  Bas: 0%
  Eos: 0.8%
  Fbg: 309.4 mg/dL
  Hb: 12.7 g/dL
  Ht: 39.4%
  Lym: 72.8%
  MCH: 20.3 pg
  MCHC: 32.2%
  MCV: 63 fL
  Mono: 2.6%
  Neu: 23%
  PT: 16.1 s
  Plat: 109.3 x10_4/uL
  RBC: 626.4 x10_4/ul
  Ret: 7.6%
  WBC: 76 x10_2/uL
  KIDNEY_L: 1 g
  KIDNEY_R: 1 g
  KIDNEY_TOTAL: 2 g
  LIVER: 9.5 g
  A/G: 1.3
  ALP: 1243.2 IU/L
  ALT: 42.8 IU/L
  AST: 65 IU/L
  BUN: 8.6 mg/dL
  CRE: 0.1 mg/dL
  Ca: 10.3 mg/dL
  Cl: 107.2 meq/L
  DBIL: 0 mg/dL
  GLC: 186 mg/dL
  IP: 9.1 mg/dL
  K: 4.2 meq/L
  LDH: 146.4 IU/L
  Na: 141.4 meq/L
  PL: 144.8 mg/dL
  RALB: 3 g/dL
  TBIL: 0.026 mg/dL
  TC: 81.4 mg/dL
  TG: 45.4 mg/dL
  TP: 5.4 g/dL
  gamma-GTP: 1.4 IU/L
[8]
  TERMINAL_BW: 225.6 g
  APTT: 20.4 s
  Bas: 0%
  Eos: 1%
  Fbg: 313.6 mg/dL
  Hb: 13.4 g/dL
  Ht: 41%
  Lym: 80%
  MCH: 20.5 pg
  MCHC: 32.8%
  MCV: 62.5 fL
  Mono: 2.6%
  Neu: 15.6%
  PT: 16.3 s
  Plat: 106 x10_4/uL
  RBC: 656.8 x10_4/ul
  Ret: 7.1%
  WBC: 76.9 x10_2/uL
  KIDNEY_L: 1 g
  KIDNEY_R: 1 g
  KIDNEY_TOTAL: 2 g
  LIVER: 10.5 g
  A/G: 1.2
  ALP: 1526.6 IU/L
  ALT: 50.2 IU/L
  AST: 71.4 IU/L
  BUN: 14.6 mg/dL
  CRE: 0.2 mg/dL
  Ca: 10.6 mg/dL
  Cl: 105 meq/L
  DBIL: 0 mg/dL
  GLC: 182.2 mg/dL
  IP: 8.2 mg/dL
  K: 4.2 meq/L
  LDH: 170.6 IU/L
  Na: 142.6 meq/L
  PL: 163 mg/dL
  RALB: 3.1 g/dL
  TBIL: 0.004 mg/dL
  TC: 89 mg/dL
  TG: 120.2 mg/dL
  TP: 5.6 g/dL
  gamma-GTP: 1.6 IU/L
